# Results reported in patent US4672036A, “Pure cultures of Kibdelsporangium aridum Shearer gen. nov., sp. nov. ATCC 39323 and mutants thereof” (SmithKline Beckman Corporation, priority 1985, dated 1987).
# Where “and” joins values, the source holds several entries; their conditions need not be identical. Equal values may be shown once. Read-outs that look alike come from different tables or passages of the source. Where a SMILES comes first, the peptide text is derived from it. Bridges are numbered along the chain shown (N, C = ends). [ ]: non-standard residue; d: D form. The star is where a group is joined. Ileψ(thiazoline)Cys = CC[C@H](C)[C@H](N)C1=N[C@H](C(=O)*)CS1; dOrn = NCCC[C@@H](N)C(=O)O
# Columns and labels:
# K. aridum = assay: susceptibility of K. aridum to antibiotics, disk diffusion method; format: cell-based, Kibdelosporangium aridum; conditions: for zone of inhibition at 5 µg/disc: Kibdelosporangium aridum, 168 h
# Method: Susceptibility of K. aridum to antibiotics was examined by placing BBL susceptibility disks on nutrient agar plates seeded with K. aridum as an overlay. Diameters of the zones of inhibition were measured after incubation for one week at 28° C.
# Chlortetracycline ([…]) produced 18 mm zones of inhibition; tetracycline (5 μg) 11-12 mm zones; rifampin (5 μg) 11-15 mm zones; novobiocin (5 μg) 27-28 mm zones. All zones of inhibition contained at least a few resistant colonies.
# rumen in vitro model [1] = assay: rumen in vitro model (growth promotant activity); design: species or system steer
# Method: The protocol for the rumen in vitro model is analogous to the protocol for the swine in vitro model with the following modifications:
# (1) A 400 kg steer is surgically prepared with a rumen cannula.
# (2) The animal is fed one time a day with the following ration:
# (3) Manipulation of VFA production is described as the production ratio of propionate as a percentage of total VFA produced.
# (4) Sampling of the material, via the cannula, is at 120 minutes post feeding.
# rumen in vitro model [2] = assay: rumen in vitro model (growth promotant activity); design: species or system steer; remark: listed apart in the source
# Swine in vitro model = assay: swine in vitro model (growth promotant activity)
# [3] = rye diet; for Feed/Gain 3-10: days 3-10; for Feed/Gain 3-17: days 3-17; for Feed/Gain 10-17: days 10-17
# Strep. faecilis HH34358 = format: cell-based; conditions: Table A
# [4] = system: Proteus mirabilis SK & F 444; format: cell-based; conditions: Table A
# [5] = system: E. coli 12140 (SK & F 809); format: cell-based
# [6] = system: Kleb. pneumoniae 4200 (SK & F 798); format: cell-based; conditions: Table A
# [7] = system: Pseudomonas aeruginosa HH63; format: cell-based; conditions: Table A
# [8] = system: Serratia marcesens ATCC 13880; format: cell-based; conditions: Table A
# [9] = system: Proteus morgani SK & F 179; format: cell-based; conditions: Table A
# Providencia SK & F 276 = format: cell-based; conditions: Table A
# [10] = system: Enterobacter cloacae HH31254; format: cell-based; conditions: Table A
# [11] = system: Listeria monocytogenes SK & F 2255; format: cell-based; conditions: Table A
# [12] = system: Staph. aureus SK & F 2613; format: cell-based; conditions: Table B, Methicillin Sensitive
# [13] = system: Bacteroides fragilis ATCC 25285; format: cell-based; conditions: Table D, Anaerobes
# B. fragilis H145 = format: cell-based, Bacteroides fragilis; conditions: Table D, Anaerobes
# B. fragilis SK & F 3060 = format: cell-based, Bacteroides fragilis; conditions: Table D, Anaerobes
# B. loeochii SK & F 3087 = format: cell-based; conditions: Table D, Anaerobes
# [14] = system: B. thetaiotamicron SK & F 3089; format: cell-based; conditions: Table D, Anaerobes
# [15] = system: Fusobacterium nucleatum ATCC 25586; format: cell-based; conditions: Table D, Anaerobes
# solubility = format: physicochemical
# [16] = system: Salmonella gallinarum BC595
# [17] = system: Clostridium perfringens MCP-1; conditions: Table D, Anaerobes
# C. perfringens MCP-2 = conditions: Table D, Anaerobes
# [18] = system: Staph. aureus 209P-Mutant; assay: microbe, parasite or virus in culture; format: cell-based; conditions: Table E
# [19] = system: Staph. aureus SK & F 674-P6 Mutant; assay: microbe, parasite or virus in culture; format: cell-based; conditions: Table E
# [20] = system: Staph. epidermidis SK & F 2683; format: cell-based; conditions: Table E
# [21] = system: Staph. epidermidis SK & F 2265; format: cell-based; conditions: Table E
# [22] = system: Strep. faecalis SK & F 657; format: cell-based; conditions: Table E
# [23] = H2O, methanol, dimethylsulfoxide, dimethylformamide
# [24] = ethanol, acetonitrile, acetone, diethylether, aliphatic hydrocarbons
compound,measurement,setting,value
CO[C@@H]1[C@@H](OC(N)=O)[C@@H](O)[C@H](Oc2ccc3c(O)c(NC(=O)c4ccc(O)c(CC=C(C)C)c4)c(=O)oc3c2C)OC1(C)C [novobiocin],zone of inhibition at 5 µg/disc,K. aridum,27 to 28 mm
CC(=O)OCC1=C(C(=O)O)N2C(=O)[C@@H](NC(=O)Cc3cccs3)[C@H]2SC1 [cephalothin],susceptibility of K. aridum,K. aridum; disk 30 μg,resistant
NC[C@H]1O[C@H](O[C@H]2[C@H](O)[C@@H](O[C@H]3O[C@H](CO)[C@@H](O)[C@H](N)[C@H]3O)[C@H](N)C[C@@H]2N)[C@H](N)C[C@@H]1O [tobramycin],susceptibility of K. aridum,K. aridum; disk 10 μg,resistant
Avoparcin,GLU (glucose),rumen in vitro model [1]; 0.5 ppm,116 % Control
same,Propionate %,rumen in vitro model [1]; 0.5 ppm,106 % Control
same,GLU (glucose),rumen in vitro model [1]; 5.0 ppm,166 % Control
same,Propionate %,rumen in vitro model [1]; 5.0 ppm,121 % Control
same,GLU (glucose),rumen in vitro model [1]; 50.0 ppm,141 % Control
same,Propionate %,rumen in vitro model [1]; 50.0 ppm,132 % Control
CC[C@H](C)[C@H](N)C1=N[C@H](C(=O)N[C@@H](CC(C)C)C(=O)N[C@H](CCC(=O)O)C(=O)N[C@H](C(=O)N[C@H]2CCCCNC(=O)[C@H](CC(N)=O)NC(=O)[C@@H](CC(=O)O)NC(=O)[C@H](Cc3cnc[nH]3)NC(=O)[C@@H](Cc3ccccc3)NC(=O)[C@H]([C@@H](C)CC)NC(=O)[C@@H](CCCN)NC2=O)[C@@H](C)CC)CS1 [bacitracin] ({Ileψ(thiazoline)Cys}-L[dE]IK[dOrn]I[dF]H[dD]N; lactam 4-C),susceptibility of K. aridum,K. aridum; disk 2 units,resistant
CO[C@H]1/C=C/O[C@@]2(C)Oc3c(C)c(O)c4c(O)c(c(/C=N/N5CCN(C)CC5)c(O)c4c3C2=O)NC(=O)/C(C)=C\C=C\[C@H](C)[C@H](O)[C@@H](C)[C@@H](O)[C@@H](C)[C@H](OC(C)=O)[C@@H]1C [rifampin],zone of inhibition at 5 µg/disc,K. aridum,11 to 15 mm
CC[C@@]1([C@H]2O[C@H]([C@H]3O[C@@](O)(CO)[C@H](C)C[C@@H]3C)C[C@H]2C)CC[C@H]([C@@]2(C)CC[C@]3(C[C@H](O)[C@@H](C)[C@@H]([C@H](C)[C@H](OC)[C@@H](C)C(=O)O)O3)O2)O1 [Monensin Sodium],Propionate %,rumen in vitro model [1],156 % Control and 149 % Control and 119 % Control
same,VFA (total of volatile fatty acids),rumen in vitro model [1],104 % Control and 94 % Control
same,LYS (lysine),rumen in vitro model [2],147 % Control and 141 % Control
CC1(C)S[C@@H]2[C@H](NC(=O)Cc3ccccc3)C(=O)N2[C@H]1C(=O)O [penicillin],susceptibility of K. aridum,K. aridum; disk 10 units,resistant
gentamicin,susceptibility of K. aridum,K. aridum; disk 10 μg,resistant
CN(C)C1C(=O)C(C(N)=O)=C(O)C2(O)C(=O)C3=C(O)c4c(O)cccc4C(C)(O)C3CC12 (centres unmarked) [tetracycline],zone of inhibition at 5 µg/disc,K. aridum,11 to 12 mm
CN(C)[C@@H]1C(O)=C(C(N)=O)C(=O)[C@@]2(O)C(O)=C3C(=O)c4c(O)ccc(Cl)c4[C@@](C)(O)[C@H]3C[C@@H]12 [Chlortetracycline],zone of inhibition at 5 µg/disc,K. aridum,18 mm
Virginiamycin,LAC (L-lactic acid),Swine in vitro model,81 % Control
same,GLU (glucose),Swine in vitro model; 1.67 ppm,182 % Control
same,LAC (L-lactic acid),Swine in vitro model; 1.67 ppm,70 % Control
same,LYS (lysine),Swine in vitro model; 1.67 ppm,82 % Control
same,GLU (glucose),Swine in vitro model; 16.67 ppm,191 % Control
same,LAC (L-lactic acid),Swine in vitro model; 16.67 ppm,76 % Control
same,LYS (lysine),Swine in vitro model; 16.67 ppm,127 % Control
same,GLU (glucose),Swine in vitro model; 166.67 ppm,197 % Control
same,LYS (lysine),Swine in vitro model; 166.67 ppm,163 % Control
same,Weight Day 10,[3]; 10.0 PPM,103.8 % of Control
same,Weight Day 17,[3]; 10.0 PPM,116.0 % of Control
same,Feed/Gain 3-10,[3]; 10.0 PPM,97.4 % of Control
same,Feed/Gain 3-17,[3]; 10.0 PPM,90.4 % of Control
same,Feed/Gain 10-17,[3]; 10.0 PPM,83.6 % of Control
same,Weight Day 10,[3]; 50.0 PPM,105.0 % of Control
same,Weight Day 17,[3]; 50.0 PPM,121.3 % of Control
same,Feed/Gain 3-10,[3]; 50.0 PPM,93.2 % of Control
same,Feed/Gain 3-17,[3]; 50.0 PPM,83.2 % of Control
same,Feed/Gain 10-17,[3]; 50.0 PPM,74.6 % of Control
[H]/N=C(/N)N[C@H]1[C@H](O)[C@@H](O)[C@H](O[C@@H]2O[C@@H](C)[C@](O)(C=O)[C@H]2O[C@@H]2O[C@@H](CO)[C@H](O)[C@@H](O)[C@@H]2NC)[C@@H](N/C(N)=N\[H])[C@@H]1O [streptomycin],susceptibility of K. aridum,K. aridum; disk 10 μg,resistant
CN[C@H]1C(=O)N[C@H]2C(=O)N[C@H](C(=O)N[C@H]3C(=O)N[C@H]4C(=O)N[C@H](C(=O)N[C@H](C(=O)O)c5cc(O)cc(O[C@H]6O[C@H](CO)[C@@H](O)[C@H](O)[C@@H]6O)c5-c5cc4ccc5O)[C@H](O)c4cc(Cl)c(c(Cl)c4)Oc4cc3cc(c4O[C@@H]3O[C@H](C(=O)O)[C@@H](O)[C@H](O)[C@H]3NC(=O)CCCCCCCCC(C)C)Oc3ccc(cc3Cl)[C@H]2O)c2cc(cc(O)c2Cl)Oc2cc1ccc2O,MIC,Strep. faecilis HH34358,0.8 µg/mL
same,MIC,[4],> 100 µg/mL
same,MIC,[5]; Table A,> 100 µg/mL
same,MIC,[6],> 100 µg/mL
same,MIC,[7],> 100 µg/mL
same,MIC,[8],> 100 µg/mL
same,MIC,[9],> 100 µg/mL
same,MIC,Providencia SK & F 276,> 100 µg/mL
same,MIC,[10],> 100 µg/mL
same,MIC,[11],~ 0.4 μg/ml
same,MIC,[12],1.6 µg/mL
same,MIC,[13],32 µg/mL
same,MIC,B. fragilis H145,8 µg/mL
same,MIC,B. fragilis SK & F 3060,16 µg/mL
same,MIC,B. loeochii SK & F 3087,4 µg/mL
same,MIC,[14],32 µg/mL
same,MIC,[15],32 µg/mL
same,GLU (glucose),Swine in vitro model,191 % Control and 188 % Control and 96 % Control
same,Propionate %,rumen in vitro model [1],120 % Control
same,VFA (total of volatile fatty acids),rumen in vitro model [1],111 % Control
same,solubility,solubility; [23],soluble
same,solubility,solubility; [24],insoluble
same,MIC,[16]; Table A,> 100 µg/mL
same,MIC,[17],≤ 0.016 µg/mL
same,MIC,C. perfringens MCP-2,≤ 0.016 µg/mL
same,LYS (lysine),rumen in vitro model [2],110 % Control and 103 % Control
CCCCCCCCCC(=O)N[C@H]1[C@H](Oc2c3cc4cc2Oc2c(Cl)cc(cc2Cl)[C@@H](O)[C@@H]2NC(=O)[C@H](NC(=O)[C@@H]4NC(=O)[C@H]4NC(=O)[C@H](NC(=O)[C@H](NC)c5ccc(O)c(c5)Oc5cc(O)c(Cl)c4c5)[C@H](O)c4ccc(c(Cl)c4)O3)c3ccc(O)c(c3)-c3c(O[C@H]4O[C@H](CO)[C@@H](O)[C@H](O)[C@@H]4O)cc(O)cc3[C@@H](C(=O)O)NC2=O)O[C@H](C(=O)O)[C@@H](O)[C@@H]1O [AAD 216A],MIC,[4],> 100 µg/mL
same,MIC,[5]; Table A,> 100 µg/mL
same,MIC,[5]; Table E,> 100 µg/mL
same,MIC,[6],> 100 µg/mL
same,MIC,[7],> 100 µg/mL
same,MIC,[8],> 100 µg/mL
same,MIC,[9],> 100 µg/mL
same,MIC,Providencia SK & F 276,> 100 µg/mL
same,MIC,[10],> 100 µg/mL
same,MIC,[13],32 µg/mL
same,MIC,B. fragilis SK & F 3060,32 µg/mL
same,MIC,[14],> 32 µg/mL
same,MIC,[15],32 µg/mL
same,MIC,[18],100 µg/mL
same,MIC,[19],~ 100 μg/ml
same,MIC,[20],100 µg/mL
same,MIC,[21],100 µg/mL
same,MIC,[22],0.8 µg/mL
same,GLU (glucose),Swine in vitro model,187 % Control and 191 % Control
same,LYS (lysine),Swine in vitro model,63 % Control and 50 % Control and 94 % Control
same,VFA (total of volatile fatty acids),rumen in vitro model [1],111 % Control and 94 % Control
same,solubility,solubility; [23],soluble
same,solubility,solubility; [24],insoluble
same,MIC,[16]; Table A,> 100 µg/mL
same,MIC,[16]; Table E,> 100 µg/mL
same,LYS (lysine),rumen in vitro model [2],114 % Control
CCC[C@@H]1C[C@@H](C(=O)N[C@@H]([C@H]2O[C@H](SC)[C@H](O)[C@@H](O)[C@H]2O)[C@H](C)Cl)N(C)C1 [clindamycin],susceptibility of K. aridum,K. aridum; disk 2 μg,resistant
CCC[C@@H]1C[C@@H](C(=O)N[C@@H]([C@H]2O[C@H](SC)[C@H](O)[C@@H](O)[C@H]2O)[C@@H](C)O)N(C)C1 [lincomycin],susceptibility of K. aridum,K. aridum; disk 2 μg,resistant
